The text below walks through data of patent US6262073A, “Pharmaceutical methods of use of 5-substituted and 5,5 disubstituted-3,4-dihydroxy-2(5H)-furanones” (Oxis International Inc., priority 2000, dated 2001).

The test system of one assay is platelet function. Conditions: cited from earlier work.
The subject of assay [1] is NF-κB. Put plainly: NF-κB nuclear membrane translocation, EMSA, LPS-treated NR8383 cells. Conditions: Rattus norvegicus. The class given is cell-based. As to the method:
Experiments measuring test agents effect on NF-κB nuclear membrane translocation were performed with NR8383 cells, which are transformed rat alveolar macrophages. […] In addition, some compounds were tested at doses of 10 and 30 μM. Untreated control cells and cells treated with LPS alone were tested in each experiment. Cells were harvested 6 hours after treatment. Nuclear proteins were extracted, frozen and quantified using the Bradford assay. Electrophoretic mobility shift assays (EMSA) were subsequently analyzed using a radiolabeled NF-κB probe. Nuclear proteins were reacted with the radiolabeled probe, run on a 5% polyacrylamide gel, and subjected to autoradiography. Specificity of protein binding for the NF-κB binding site was assayed by cold and nonspecific competition using the LPS treated sample in each experiment. All EMSA were duplicated at least once to verify results. Laser densitometry of NF-κB bands was done on autoradiographs to quantify NF-κB binding activity.

Assay [2] has as its system NF-κB. Conditions: cited from earlier work.
The subject of another assay is platelet aggregation. Conditions: read-out: AA-induced platelet aggregation (AAIPA) IC50; cited from earlier work.
A further assay concerns PGE2 production. Conditions: stimulated macrophages; read-out: Inhibition of PGE2 production IC50; cited from earlier work.
The subject of a further assay is LTB4 production. Conditions: stimulated macrophages; read-out: Inhibition of LTB4 production IC50; cited from earlier work.
In assay [3] the test system is Lipid peroxidation (rat liver microsomes). Put plainly: Lipid peroxidation screen (LPO), CCl4-induced, liver microsomes. Conditions: 300 μM. The class given is biochemical. For orientation: Liver microsomes are vesicles of endoplasmic reticulum, rich in cytochrome P450 enzymes.
In assay [4] the target is T1, Cyclooxygenase-2 (prostaglandin H synthetase-2) from sheep placenta (Ovis aries, UniProt P79208).
T1 construct: cyclooxygenase-2 from sheep placenta; from tissue; host or cells: sheep placenta
T1 sequence (P79208 17-603): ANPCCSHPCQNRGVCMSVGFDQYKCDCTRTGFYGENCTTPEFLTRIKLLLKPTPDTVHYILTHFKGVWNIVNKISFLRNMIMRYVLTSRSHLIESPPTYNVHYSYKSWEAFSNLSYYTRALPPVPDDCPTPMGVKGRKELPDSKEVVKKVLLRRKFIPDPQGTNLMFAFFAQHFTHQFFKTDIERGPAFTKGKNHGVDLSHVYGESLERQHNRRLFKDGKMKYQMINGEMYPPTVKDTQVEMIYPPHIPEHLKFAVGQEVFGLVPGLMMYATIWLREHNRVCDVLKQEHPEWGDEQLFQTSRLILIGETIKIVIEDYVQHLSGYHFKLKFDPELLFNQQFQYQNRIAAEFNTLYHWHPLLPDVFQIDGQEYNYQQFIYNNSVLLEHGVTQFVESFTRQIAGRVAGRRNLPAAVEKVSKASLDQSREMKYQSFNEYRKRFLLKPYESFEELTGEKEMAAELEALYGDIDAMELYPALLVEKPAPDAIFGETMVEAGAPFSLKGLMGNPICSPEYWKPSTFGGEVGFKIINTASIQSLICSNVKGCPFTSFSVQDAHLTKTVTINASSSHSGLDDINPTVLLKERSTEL
Kind of assay: Cyclooxygenase-2 screen (COX-2). The assay is classed as biochemical. Conditions: read-out: COX-2 percent inhibition.

The target of assay [5] is T2, 5-Lipoxygenase (crude enzyme preparation from rat basophilic leukemia cells, RBL-1) (Rattus norvegicus, UniProt P12527).
T2 construct: crude enzyme preparation from rat basophilic leukemia cells (RBL-1); endogenous in cells; host or cells: rat basophilic leukemia cells (RBL-1)
T2 sequence (P12527 1-673): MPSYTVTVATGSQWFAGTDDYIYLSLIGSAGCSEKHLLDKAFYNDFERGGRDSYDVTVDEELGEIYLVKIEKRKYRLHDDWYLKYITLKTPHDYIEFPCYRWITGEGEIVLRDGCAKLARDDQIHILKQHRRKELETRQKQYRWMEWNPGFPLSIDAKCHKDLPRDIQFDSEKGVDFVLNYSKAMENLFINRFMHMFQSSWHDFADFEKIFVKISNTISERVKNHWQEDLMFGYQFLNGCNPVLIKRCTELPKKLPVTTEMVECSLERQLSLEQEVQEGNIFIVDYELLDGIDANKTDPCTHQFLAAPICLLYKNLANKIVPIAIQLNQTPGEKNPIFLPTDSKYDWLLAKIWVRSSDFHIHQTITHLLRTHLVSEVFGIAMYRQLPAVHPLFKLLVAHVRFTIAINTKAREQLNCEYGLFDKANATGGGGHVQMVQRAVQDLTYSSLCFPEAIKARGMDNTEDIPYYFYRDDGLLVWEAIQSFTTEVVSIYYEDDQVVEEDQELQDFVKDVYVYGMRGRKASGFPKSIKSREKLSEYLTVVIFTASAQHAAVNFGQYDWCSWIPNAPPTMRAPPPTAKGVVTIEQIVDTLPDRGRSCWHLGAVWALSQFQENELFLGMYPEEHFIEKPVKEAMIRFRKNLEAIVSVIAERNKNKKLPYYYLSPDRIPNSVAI
Put plainly: 5-Lipoxygenase screen (5-LO), 5-HETE by RIA. The assay is classed as biochemical. Conditions: for inhibition at 30 µM: read-out: 5-LO percent inhibition; for inhibition at 1 µM: read-out: Percent inhibition of 5-LO, test conc. 1 μM (Table II).

Assay [6] deals with T3, Cyclooxygenase-1 (cyclooxygenase from ram seminal vesicles) (Ovis aries, UniProt P05979).
T3 construct: cyclooxygenase from ram seminal vesicles; from tissue; host or cells: ram seminal vesicles
T3 sequence (P05979 25-600): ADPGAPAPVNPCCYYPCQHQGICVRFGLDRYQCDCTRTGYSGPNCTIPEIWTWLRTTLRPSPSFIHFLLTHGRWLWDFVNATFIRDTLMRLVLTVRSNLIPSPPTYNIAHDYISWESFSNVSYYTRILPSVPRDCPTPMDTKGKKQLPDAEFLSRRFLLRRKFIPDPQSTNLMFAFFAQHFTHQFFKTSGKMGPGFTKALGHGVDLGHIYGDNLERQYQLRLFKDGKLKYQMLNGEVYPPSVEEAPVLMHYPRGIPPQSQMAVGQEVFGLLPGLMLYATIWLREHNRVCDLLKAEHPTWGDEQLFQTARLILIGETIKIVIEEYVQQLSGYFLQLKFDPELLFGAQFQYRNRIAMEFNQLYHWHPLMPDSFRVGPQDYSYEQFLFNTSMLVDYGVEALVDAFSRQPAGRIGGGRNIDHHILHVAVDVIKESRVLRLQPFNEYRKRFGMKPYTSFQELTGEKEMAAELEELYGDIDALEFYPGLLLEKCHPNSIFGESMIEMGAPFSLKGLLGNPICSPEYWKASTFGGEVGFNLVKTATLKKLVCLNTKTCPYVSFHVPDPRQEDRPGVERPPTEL
Put plainly: Cyclooxygenase-1 screen (COX-1). The class given is biochemical. Conditions: 300 μM.

The subject of assay [7] is Nuclear Factor-kappa B (NF-κB). Kind of assay: NF-κB lacZ (κB-Z) reporter assay in transfected Jurkat cells stimulated with A23187 and PMA. The class given is cell-based, human. Conditions: Homo sapiens; 10 μM; κB-Z Jurkat cells, A23187 and PMA (Table III); read-out: NF-κB percent inhibition. As to the method:
The human T lymphoid cell line Jurkat was transfected with a response element lacZ reporter in which transcription of the β-galactosidase gene is directed by the binding site for the NF-κB transcription factor. […] At the end of the incubation, the cells are spun down and resuspended in the buffer and FDG (fluorescein di-β-D-galactopyranoside) solution. The covered plates are further incubated in the dark for 16 hours at 25° C. […] Compounds were screened at 10 μM.
(A reporter such as luciferase makes a cellular process visible.)

Regarding `O=C1OC(c2ccc(Cl)cc2)C(O)=C1O` (stereo not shown) [CHTA, 4-(4-chlorophenyl)-2-hydroxytetronic acid], the “Inhibition of platelet function” value with platelet function is “inhibits platelet function by a similar mechanism, involving arachidonic acid release”.

By inhibition is commonly meant the drop in the measured response relative to a control, in per cent. As for `C[C@@H]1C[C@H]2[C@@H]3CCC4=CC(=O)C=C[C@]4(C)[C@@]3(F)[C@@H](O)C[C@]2(C)[C@@]1(O)C(=O)CO` [Dexamethasone], the inhibition at 1 µM with NF-κB [1] (6 h, read-out: % Inhibition (NF-κB nuclear translocation)) amounted to 60%.

On to `S=C(S)N1CCCC1` [Pyrrolidone dithiocarbamate (PDTC), Pyrrolidone dithiocarbamate], for which, in the assay with NF-κB [1] (10,000 nM, LPS 1 μg/ml, NR8383 cells, 6 hours), the inhibition at 10 µM is 50%. For the same molecule, the “Inhibition of H2O2 and extracellular cytokine-induced activation of NF-κB” value in the assay on NF-κB [2] was “inhibit both the H2 O2 and extracellular cytokine-induced activation of NF-κB in a concentration dependent manner”.

What is called IC50 is the concentration that inhibits the measured activity by half. `CCCCC/C=C\C/C=C\C/C=C\C/C=C\CC[C@@H]1OC(=O)C(O)=C1O` [(S)-3,4-dihydroxy-5[(all Z)-3,6,9,12-octadecatraenyl]-2 (5H)-furanone]: the half-maximal inhibitory concentration (IC50) with platelet aggregation was less than 10 µM; in the assay with PGE2 production, 20 µM; in the assay on LTB4 production, 20 µM.

Regarding `O=C1OC(CCC#Cc2ccc3ccccc3c2)C(O)=C1O` (stereo not shown) [Example 32, 3,4-Dihydroxy-5-[4-(2-naphthyl)-3-butynyl]-2(5H)-furanone], the LPO percent inhibition in assay [3] is 75%. The inhibition at 0.03 µM with NF-κB [1] (30 nM, LPS 1 μg/ml, NR8383 cells, 6 hours) is 90%. For the same molecule, in assay [4], the inhibition at 300 µM amounted to 23%. For the same molecule, in [5], the inhibition at 30 µM was 98% and the inhibition at 1 µM was 66%. This molecule also showed a COX-1 percent inhibition in assay [6] of 34%.

In assay [3], `CC(C)Cc1ccc([C@@]2(C)OC(=O)C(O)=C2O)cc1` [Example 13, (R)-(-)-3,4-Dihydroxy-5-methyl-5-[4-(2-methylpropyl)phenyl]-2(5H)-furanone] registered an LPO percent inhibition of 76%. The inhibition at 300 µM in [4] came to 14%. Also, the inhibition at 10 µM in [7] stood at 49%. Further, in [5], the inhibition at 30 µM was found to be 102% and the inhibition at 1 µM worked out at 59%. This molecule also returned a COX-1 percent inhibition in assay [6] of 12%.

Consider `C[C@]1(c2ccc(-c3ccccc3)cc2)OC(=O)C(O)=C1O` [Example 12, (R)-(-)-5-[(1,1'-Biphenyl)-4-yl]-3,4-dihydroxy-5-methyl-2(5H)-furanone], for which, in assay [3], the LPO percent inhibition is reported as 62%. The inhibition at 300 µM in assay [4] came out at 12%. The inhibition at 10 µM in [7] turned out to be 56%. Besides, in [5], the inhibition at 30 µM came to 101% and the inhibition at 1 µM came out at 60%. In assay [6], the COX-1 percent inhibition is 10%.
